According to patent US8637664B2, “Alkyl 4- [4- (5-oxo-2,3,5, 11a-tetrahydo-5H-pyrrolo [2, 1-c] [1,4] benzodiazepine-8-yloxy)-butyrylamino]-1H-pyrrole-2-carboxylate derivatives and related compounds for the treatment of a proliferative disease” (Spirogen SARL, priority 2005, dated 2014):
Like-named read-outs stand apart in the source and are kept apart here.

What was measured:
[1] = target: 262 bp DNA fragment (MS2F or MS2R) of MS2 plasmid; assay: DNase I footprinting on MS2 DNA fragment; format: binding
Protocol: The sequence selectivity of the six PBD-pyrrole conjugates (21, 23, 25, 27, 29) was evaluated by standard DNA footprinting on a fragment of MS2 as follows, in accordance with the technique described in Martin, C., et al., (Martin, C., et al., Biochemistry, 44(11), 4135-4147 (2005))
Forward (5′-[…]-3′) or reverse (5′-[…]-3′) primer was 5′-end labelled with ^32P by T4 polynucleotide kinase. Labelling mixture contained primer (5 pmol; Sigma-Genosys), 10× kinase buffer (1 μl; Promega), (γ-^32P)-ATP (2μ of 10 μCi/μl, 6000 Ci/mmol; Perkin Elmer Life Sciences), and T4 polynucleotide kinase (10 U; Promega) in a 10 μl final volume. Labelling mix was incubated at 37° C. for 30 minutes followed by inactivation of the kinase at 70° C. for 10 minutes. A 262 bp DNA fragment (MS2F or MS2R) was amplified from the MS2 plasmid using PCR with either labelled forward or reverse primer and the unlabelled primer as required. Reactions were comprised of labelled primer mix (10 μl), 10×PCR buffer (5 μl; Sigma), dNTPs (5 μl; 2.5 mM each of A, C, G and T, Amersham Pharmacia), unlabelled primer as required ([…]), MS2 plasmid template DNA (10 ng) and Taq DNA polymerase (5 U; Sigma) in a 50 μl final volume. Radiolabelled 262-mer was purified by non-denaturing polyacrylamide gel electrophoresis, elution, filtration and EtOH precipitation and was resuspended in a solution of Tris-HCl (10 mM) pH 7.4/NaCl (10 mM) to yield an activity of 200 counts per second per 5 μl when held up, in a pipette tip, to a capped Morgan series 900 mini-monitor.
For DNase I footprinting radiolabelled 262-mer (2 μl) was incubated overnight (16-18 h) with drug solution (388 μl) or in an aqueous buffer [HEPES (20 mM) pH 7.9, NaCl (50 mM), MgCl2 (1 mM), DTT (5 mM), 10% glycerol] in control reactions. Enzymatic cleavage was initiated by addition of DNase I solution (10 μl of 0.05 U/ml; Sigma) in aqueous NaCl (200 mM), MgCl2 (20 mM) and MnCl2 (20 mM) and halted with stop solution [40 μl of NaCl (2.25 M), EDTA (150 mM) pH 8.0, 0.57 μg/μl glycogen (0.57 μg/μl; Roche), poly(dl-dC).poly(dl-dC) DNA (19.3 ng/μl; Amersham Pharmacia)]. From this mixture, digested DNA fragments were prepared for electrophoresis following the protocol of Trauger & Dervan, and were loaded on to a preheated 8% denaturing polyacrylamide gel. Electrophoresis in 1×TBE buffer was allowed to proceed for 100 min at 70 W (1600-2000 V). The gel was the fixed in acetic acid (10% v/v) and methanol (10% v/v) for 15 minutes followed by being blotted onto Whatman 3 mM paper and vacuum-dried at 80° C. for 45 minutes.
Dried gels were stored at room temperature in phosphor storage screens (Molecular Dynamics) for a minimum period of 12 h. Data were collected from exposed screens using a Molecular Dynamics 425E Phosphorlmager and transferred to ImageQuant v1.2 software (Molecular Dynamics) for analysis. Data were expressed as the differential cleavage between control and sample lanes. Peaks were integrated and differential cleavage calculated as ln(fd)−ln(fc); (fd is the fractional cleavage at any particular bond in the presence of drug and fc is the fractional cleavage of the same bond in the control). Maxam-Gilbert G+A marker lanes were prepared in the usual fashion.
The vast majority of footprint sites are common features in the binding profiles of all six conjugates, with only a small number of sites being footprinted by a subset of the family. Even more unexpectedly, no site is footprinted by only one molecule (in fact, the fewest number of conjugates that bind at any single site is four). The differential cleavage plot provides footprinting profiles at a supramaximal concentration colour-coded for each conjugate which illustrates a striking degree of overlap. Although there is no conspicuous change in footprinting patterns as the number of pyrroles units in each conjugate increases, there are changes in two other features, namely, the apparent binding affinity and the width of the footprinted site. […]

[2] = tested on: 170 bp sequence of the human Topo-IIa promoter; assay: DNase I footprinting on Topo-IIa promoter (ICB1, ICB2 sites); format: binding
How it was run: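 DNase I footprinting on a 170 bp human Topo-IIa promoter fragment, compound lanes at 0, 1.6, 8, 40, 200, 1000, 5000 and 25000 nM. Values are the concentrations (μM) at which binding at the ICB1 and ICB2 sites is seen.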

[3] = tested on: NF-Y binding at ICB1 of Topoisomerase IIα promoter; assay: NF-Y gel shift assay (EMSA) at ICB1
[4] = tested on: NF-Y binding at ICB2 of Topoisomerase IIα promoter; assay: NF-Y gel shift assay (EMSA) at ICB2

Compound	IC50 ([1]; read-out: DNase IC50 (apparent binding affinity; 50% inhibition of DNase I-mediated cleavage), estimated by eye, site 5′-62CAATACACA70-3′) [nM]	Concentration at which DNA binding is observed, ICB1 ([2]; ICB1 site) [µM]	Concentration at which DNA binding is observed, ICB2 ([2]; ICB2 site) [µM]	Lowest concentration at which NF-Y binding inhibition was observed [3] [µM]	Lowest concentration at which NF-Y binding inhibition was observed [4] [µM]	apparent binding affinity of C11 relative to 25 ([1]; C11 approximately 3 μM versus 25 30-100 nM)	Footprint Position D ([1]; MS2 DNA fragment, position D)	Footprint Position G ([1]; MS2 DNA fragment, position G)	Footprint Position K ([1]; MS2 DNA fragment, position K)	Footprint Position L ([1]; MS2 DNA fragment, position L)	Footprint Position M ([1]; MS2 DNA fragment, position M)	IC50 ([1]; estimated by eye from footprint gel, read-out: DNase IC50 (apparent binding affinity)) [nM]
COC(=O)c1cc(NC(=O)c2cc(NC(=O)CCCOc3cc4c(cc3OC)C(=O)N3CCC[C@H]3C=N4)cn2C)cn1C [Compound 23, (11aS) Methyl 4-({4-[4-(7-Methoxy-6-oxo-2,3,5,11a-tetrahydro-5H-pyrrolo[2,1-c][1,4]benzodiazepine-8-yloxy)-butyrylamino]-1-methyl-1H-pyrrole-2-carbonyl}-amino)-1-methyl-1H-pyrrole-2-carboxylate]	100 to 300	1	1	5	5	–	–	–	–	–	–	–
COC(=O)c1cc(NC(=O)c2cc(NC(=O)c3cc(NC(=O)CCOc4cc5c(cc4OC)C(=O)N4CCC[C@H]4C=N5)cn3C)cn2C)cn1C [Compound C11, (11aS) Methyl 4-{[4-({4-[4-(7-Methoxy-5-oxo-2,3,5,11a-tetrahydro-5H-pyrrolo[2,1-c][1,4]benzodiazepine-8-yloxy)-propionylamino]-1-methyl-1H-pyrrole-2-carbonyl]-amino)-1-methyl-1H-pyrrole-2-carbonyl]-amino}-1-methyl-1H-pyrrole-2-carboxylate]	–	–	–	–	–	30-100 fold	lack of footprints	lack of footprints	much weaker binding	much weaker binding	lack of footprints	~3000
